Source: US10494380B2, “Nitrogen-containing tricyclic derivatives having HIV replication inhibitory activity” (priority 2015, dated 2019)
Where two headings read alike, the source gives them in different places.

How the values were obtained:
[1] = system: T125A mutant virus (HIV-1 NL-432 recombinant molecular clone, IN gene); test: HIV replication inhibition assay against integrase 124/125 mutant virus (Test Example 2); assay type: cell-based
Outline: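 EC50 is the compound concentration blocking half of virus-induced cell death, measured by MTT (OD 560 nm, 690 nm reference) after 4 days at 37 °C. Integrase 124/125 mutant NL-432 virus from transfected 293T cells (60 pfu) was added to 2.5×10^4 MT-4 cells with compound.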

CYP3A4 = CYP3A4 (Homo sapiens (Human), UniProt P08684); test: CYP3A4 (MDZ) MBI test (Test Example 6); conditions: pooled human liver microsomes, midazolam 1-hydroxylation, preincubation 0 or 30 min
[2] = system: sheep red blood cells (RBC); test: Photohemolysis test (Test Example 13); assay type: cell-based; conditions: 0.0008 to 0.1 w/v %, 10 J/cm2 UV-irradiation (290-400 nm)
Outline: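 Sheep RBC suspension (2.5 v/v %) with compound at 0.0008–0.1 w/v % exposed to 10 J/cm2 UV-A/UV-B (290–400 nm), then centrifuged. Supernatant absorbance at 540 nm gave photohemolysis index (PI) and at 630 nm met-Hb formation. Negative if PI<10% and 630 nm change <0.05; otherwise positive.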

HIV = assay type: cell-based; conditions: EC50 in the presence of human serum (25%) versus without human serum, MT-4 cells
Outline: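 HIV-infected MT-4 cells (3×10^4/well, infected 1 h at 37° C) are grown 4 days with compound that was first mixed 1 h with human serum or with medium only. Potency shift is the EC50 with serum divided by the EC50 without serum.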

CYP2C9 = CYP2C9 (Homo sapiens (Human), UniProt P11712); test: CYP inhibition assay, tolbutamide methyl-hydroxylation (Test Example 4); assay type: in vitro ADME; conditions: pooled human hepatic microsome, 100 μmol/L tolbutamide, 15 minutes, 37° C.
Outline: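 Pooled human liver microsomes (0.2 mg protein/mL) with 100 µmol/L tolbutamide in 50 mmol/L HEPES, test compound at 1, 5, 10, 20 µmol/L; NADPH-started, 15 min at 37 °C. Hydroxytolbutamide quantified by LC/MS/MS to assess inhibition of metabolite formation.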

HIV (HTLV-IIIB strain) = test: HIV replication inhibition assay (Test Example 1; MT-4 cells, MTT); assay type: cell-based; conditions: HIV (HTLV-IIIB strain), MT-4 cells, MTT, four days; for EC50: read-out: EC50; for EC90: read-out: EC90
Outline: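 MT-4 cells (2.5×10^4/well) were infected with HIV HTLV-IIIB (60 pfu) in the presence of compound and cultured 4 days at 37 °C. Cell viability was read by MTT reduction (OD 560/690 nm). EC50 and EC90 are the concentrations inhibiting virus-induced cytotoxicity by 50% and 90%.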

[3] = Human immunodeficiency virus 1, MT4, read-out: EC50 against T125A mutant virus, T125A mutant virus (HIV-1 NL-432 IN gene), MT-4 cells, MTT
[4] = Human immunodeficiency virus 1, MT4, 96 h
[5] = T125A mutant virus (HIV-1 NL-432 IN gene), MT-4 cells, MTT, read-out: EC50 against T125A mutant virus

CYP3A4, sequence (P08684 whole entry): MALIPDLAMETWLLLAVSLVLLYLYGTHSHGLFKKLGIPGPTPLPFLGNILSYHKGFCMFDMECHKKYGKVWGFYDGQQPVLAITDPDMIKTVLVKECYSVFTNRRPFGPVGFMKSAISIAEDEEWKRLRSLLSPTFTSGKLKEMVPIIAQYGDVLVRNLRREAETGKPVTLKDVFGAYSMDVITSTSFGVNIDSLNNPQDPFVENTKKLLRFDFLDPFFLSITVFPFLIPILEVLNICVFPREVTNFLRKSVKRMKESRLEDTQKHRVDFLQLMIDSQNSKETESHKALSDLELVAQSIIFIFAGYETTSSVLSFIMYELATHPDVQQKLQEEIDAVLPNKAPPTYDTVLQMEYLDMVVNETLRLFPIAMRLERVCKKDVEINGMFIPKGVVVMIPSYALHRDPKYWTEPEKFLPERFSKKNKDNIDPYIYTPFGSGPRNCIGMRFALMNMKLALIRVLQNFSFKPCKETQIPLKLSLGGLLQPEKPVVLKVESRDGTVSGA
CYP2C9, sequence (P11712 whole entry): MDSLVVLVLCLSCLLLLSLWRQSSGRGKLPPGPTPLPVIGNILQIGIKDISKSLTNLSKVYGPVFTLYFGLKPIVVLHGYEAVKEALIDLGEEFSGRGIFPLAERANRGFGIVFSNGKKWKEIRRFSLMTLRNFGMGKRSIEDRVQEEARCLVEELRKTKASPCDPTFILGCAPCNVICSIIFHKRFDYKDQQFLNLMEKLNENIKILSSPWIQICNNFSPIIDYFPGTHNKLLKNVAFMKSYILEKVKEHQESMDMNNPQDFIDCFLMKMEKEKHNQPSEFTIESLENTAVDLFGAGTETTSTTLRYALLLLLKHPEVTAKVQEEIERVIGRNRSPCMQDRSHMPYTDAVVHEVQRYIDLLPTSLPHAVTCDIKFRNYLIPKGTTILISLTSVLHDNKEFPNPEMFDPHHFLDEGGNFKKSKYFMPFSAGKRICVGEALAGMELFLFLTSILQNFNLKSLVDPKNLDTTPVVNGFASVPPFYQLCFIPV

| SMILES | EC50 [1, 3] | CYP3A4 (MDZ) MBI, shifted IC (CYP3A4) | Photohemolysis test, potential of phototoxicity (PI and met-Hb) [2] | Potency shift value (HIV) | IC50 (CYP2C9) | EC50 (HIV (HTLV-IIIB strain); [4]) | EC90 (HIV (HTLV-IIIB strain); [4]) | EC50 [1, 5] | EC50 (HIV (HTLV-IIIB strain)) | EC90 (HIV (HTLV-IIIB strain)) |
| --- | --- | --- | --- | --- | --- | --- | --- | --- | --- | --- |
| Cc1ccc(-c2c([C@H](OC(C)(C)C)C(=O)O)c(C)c3c4c2cc(C)n4CCN3c2nc3c(s2)CCN(C)C3)cc1 [Compound I-292] | 6.3 nM | (−) (When a shifted IC was 1.0 or less, this was defined as negative) | (−) (negative criteria (−), PI<10% and changes in absorbance at 630 nm<0.05, respectively) | 4.5 | > 20000 nM | 2.5 nM | 5.1 nM | – | – | – |
| Cc1ccc(-c2c([C@H](OC(C)(C)C)C(=O)O)c(C)c3c4c2cc(C)n4CCN3c2nc3c(s2)CN(C)CC3)cc1 [Compound I-293] | 9.3 nM | (−) (When a shifted IC was 1.0 or less, this was defined as negative) | (−) (negative criteria (−), PI<10% and changes in absorbance at 630 nm<0.05, respectively) | 4.8 | > 20000 nM | 3.1 nM | 5.5 nM | – | – | – |
| Cc1ccc(-c2c([C@H](OC(C)(C)C)C(=O)O)c(C)c3c4c2cc(C)n4CCN3c2ccc(N3CCCC3=O)nn2)cc1 [Compound I-303] | – | (−) (When a shifted IC was 1.0 or less, this was defined as negative) | (−) (negative criteria (−), PI<10% and changes in absorbance at 630 nm<0.05, respectively) | 15 | > 20000 nM | – | – | 4.3 nM | 1.5 nM | 4 nM |
| Cc1ccc(-c2c([C@H](OC(C)(C)C)C(=O)O)c(C)c3c4c2cc(C)n4CCN3c2ncc(CN(C)C)cn2)cc1 [Compound I-304] | – | (−) (When a shifted IC was 1.0 or less, this was defined as negative) | (−) (negative criteria (−), PI<10% and changes in absorbance at 630 nm<0.05, respectively) | 6.8 | > 20000 nM | – | – | 7.2 nM | 4.1 nM | – |
| Cc1ccc(-c2c([C@H](OC(C)(C)C)C(=O)O)c(C)c3c4c2cc(C)n4CCN3c2ncc(CCN3CCCCC3)cn2)cc1 [Compound I-305] | – | (−) (When a shifted IC was 1.0 or less, this was defined as negative) | (−) (negative criteria (−), PI<10% and changes in absorbance at 630 nm<0.05, respectively) | 3.6 | > 20000 nM | – | – | 12 nM | 3.7 nM | 4.9 nM |
| Cc1ccc(-c2c([C@H](OC(C)(C)C)C(=O)O)c(C)c3c4c2cc(C)n4CCN3c2ncc(CN3CCCCC3)cn2)cc1 [Compound I-308] | – | (−) (When a shifted IC was 1.0 or less, this was defined as negative) | (−) (negative criteria (−), PI<10% and changes in absorbance at 630 nm<0.05, respectively) | 11 | > 20000 nM | – | – | 4.3 nM | 1.6 nM | 4.8 nM |
| Cc1ccc(-c2c([C@H](OC(C)(C)C)C(=O)O)c(C)c3c4c2cc(C)n4CCN3c2ncc(CCN3CCOCC3)cn2)cc1 [Compound I-309] | – | (−) (When a shifted IC was 1.0 or less, this was defined as negative) | (−) (negative criteria (−), PI<10% and changes in absorbance at 630 nm<0.05, respectively) | 13 | > 20000 nM | – | – | 4.7 nM | 2.2 nM | 1.5 nM |
